Experimental data reported in paper PMC2720641 (Biochemistry, 2009).

Tests used:
mCOX-2 = molecular target: T1, mCOX-2 (Mus musculus, UniProt Q05769); test: IC50 for inhibition of mCOX-2 oxygenation of AA after preincubation; type: biochemical, murine; settings: read-out: IC50 for inhibition of AA oxygenation; 2 min preincubation; 50 μM AA
T1 sequence (Q05769 18-604): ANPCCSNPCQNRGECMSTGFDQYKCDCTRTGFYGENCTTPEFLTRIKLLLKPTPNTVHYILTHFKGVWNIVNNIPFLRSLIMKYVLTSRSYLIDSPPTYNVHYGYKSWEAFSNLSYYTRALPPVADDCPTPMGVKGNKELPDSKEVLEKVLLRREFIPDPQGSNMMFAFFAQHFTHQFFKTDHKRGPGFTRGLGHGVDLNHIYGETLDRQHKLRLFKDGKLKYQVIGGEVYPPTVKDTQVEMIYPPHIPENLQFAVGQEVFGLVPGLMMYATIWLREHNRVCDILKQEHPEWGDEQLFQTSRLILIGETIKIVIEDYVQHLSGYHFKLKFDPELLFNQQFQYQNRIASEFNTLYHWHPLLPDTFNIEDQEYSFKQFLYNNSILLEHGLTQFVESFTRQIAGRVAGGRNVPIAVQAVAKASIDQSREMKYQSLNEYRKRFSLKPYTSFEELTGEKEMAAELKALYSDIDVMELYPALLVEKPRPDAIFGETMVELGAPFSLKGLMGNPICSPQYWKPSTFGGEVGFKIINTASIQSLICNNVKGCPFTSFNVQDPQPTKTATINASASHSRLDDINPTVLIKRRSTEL

murine COX-2 (mCOX-2) [1] = molecular target: T2, murine COX-2 (mCOX-2) (Mus musculus, UniProt Q05769); test: Instantaneous inhibition of mCOX-2 oxygenation of AA; type: biochemical; settings: substrate AA
T2 sequence (Q05769 18-604): T1 sequence (Q05769 18-604)

murine COX-2 (mCOX-2) [2] = molecular target: T2, murine COX-2 (mCOX-2); test: Instantaneous inhibition of mCOX-2 oxygenation of 2-AG; type: biochemical; settings: substrate 2-AG

Row | IC50 (mCOX-2) [µM] | Mode of inhibition of AA oxygenation (murine COX-2 (mCOX-2) [1]) | Mode of inhibition of 2-AG oxygenation (murine COX-2 (mCOX-2) [2]) | Oxygenation of 2-AG at 5 μM inhibitor (murine COX-2 (mCOX-2) [2]; mefenamate 5 μM) | Structure (SMILES)
1 | ~500 | – | – | – | COc1ccc2c(c1)c(CC(=O)O)cn2C(=O)c1ccc(Cl)cc1 [2′-des-methylindomethacin]
2 | – | competitive | noncompetitive | completely inhibited | Cc1cccc(Nc2ccccc2C(=O)O)c1C [mefenamic acid]
